Laboratory results: paper PMC10818746, “Inhibition of CYP1A1 Alleviates Colchicine-Induced Hepatotoxicity” (Toxins, 2024)

Assays:
Type in all cases: in vitro ADME
Details in all cases: colchicine 25 µM, NADPH 1 mM, CYP 2 pmol/mL, PBS pH 7.4; mean ± SD (n = 2)
CYP4A11 = target: T1, CYP4A11 (Homo sapiens, UniProt Q02928); assay: Colchicine metabolism by cDNA-expressed recombinant CYP4A11
T1 construct: purchased Research Institute for Liver Diseases Co., Ltd. (Shanghai, China)
T1 sequence (Q02928 5-519): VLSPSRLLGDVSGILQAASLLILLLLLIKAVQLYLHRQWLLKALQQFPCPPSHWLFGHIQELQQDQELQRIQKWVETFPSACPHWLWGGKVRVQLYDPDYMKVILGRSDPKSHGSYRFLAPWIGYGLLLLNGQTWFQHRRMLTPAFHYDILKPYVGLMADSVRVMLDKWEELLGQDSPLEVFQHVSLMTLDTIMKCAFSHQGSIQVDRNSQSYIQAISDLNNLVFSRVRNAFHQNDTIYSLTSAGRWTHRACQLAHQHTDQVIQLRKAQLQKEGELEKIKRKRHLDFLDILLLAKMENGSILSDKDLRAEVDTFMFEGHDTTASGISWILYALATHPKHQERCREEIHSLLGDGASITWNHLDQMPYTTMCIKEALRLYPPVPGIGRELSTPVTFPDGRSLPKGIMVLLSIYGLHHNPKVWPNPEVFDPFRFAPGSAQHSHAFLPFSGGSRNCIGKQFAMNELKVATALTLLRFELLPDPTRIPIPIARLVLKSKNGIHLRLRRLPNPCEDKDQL
Method: (§1) Pre-cooled acetonitrile was used to terminate the reaction, and then centrifugation (4 °C, 12,000 rpm, 20 min) was performed to obtain the sample.
(§2) All samples were analyzed as shown in [17] and are briefly described in Supporting Information. […]
(§3) Supplementary materials and methods
(§4) Reference numbers refer to the main text list
(§5) UHPLC‐Q exactive plus MS Analysis
(§6) All samples were analyzed on a liquid chromatography system including a Vanquish autosampler, Vanquish detector, Vanquish pump (Thremo Fisher Scientific, Santa Clara, CA). Samples were separated on an ACQUITY UPLC HSS T3 column (2.1×100 mm, […], Waters, USA). The injection volume: 5 μL, and the flow rate was 0.3 mL/min.
(§7) Phase A was H2O containing 0.01% formic acid, and phase B was acetonitrile containing 0.01% formic acid. The elution gradient was as follows: 0‐12 mi n, 2‐98% B; 12‐14 min, 2% A; 14‐16 min, 98% A. Other parameters are as follows: column temperature 45 ℃ , flow rate of collision gas and dry gas 9 L/min. Capillary voltage 3.5 kV, temperature 350 ℃ , atomizer pressure 35 psi. Vanquish UHPLC‐Q Exactive plus MS (Thermo Fisher, USA) was collected in both positive modes, operating in full scan mode with 60‐900 m/z. […]

CYP2B6 = target: T2, CYP2B6 (Homo sapiens, UniProt P20813); assay: Colchicine metabolism by cDNA-expressed recombinant CYP2B6
T2 construct: purchased Research Institute for Liver Diseases Co., Ltd. (Shanghai, China)
T2 sequence (P20813 1-491): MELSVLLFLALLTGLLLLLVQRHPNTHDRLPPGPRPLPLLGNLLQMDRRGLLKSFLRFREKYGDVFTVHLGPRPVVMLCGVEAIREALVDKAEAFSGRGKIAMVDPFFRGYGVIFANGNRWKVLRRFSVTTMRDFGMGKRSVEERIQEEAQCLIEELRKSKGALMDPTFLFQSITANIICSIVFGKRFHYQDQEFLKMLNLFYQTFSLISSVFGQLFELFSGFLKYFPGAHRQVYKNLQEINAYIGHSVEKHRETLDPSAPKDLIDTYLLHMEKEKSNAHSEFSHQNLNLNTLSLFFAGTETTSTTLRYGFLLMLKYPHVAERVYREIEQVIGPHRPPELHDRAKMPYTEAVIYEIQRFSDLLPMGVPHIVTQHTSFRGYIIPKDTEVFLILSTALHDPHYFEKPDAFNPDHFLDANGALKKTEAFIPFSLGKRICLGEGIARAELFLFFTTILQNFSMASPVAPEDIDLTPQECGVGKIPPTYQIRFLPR
Method: as §1, §2, §3, §4, §5, §6, §7

CYP2D6 = target: T3, CYP2D6 (Homo sapiens, UniProt P10635); assay: Colchicine metabolism by cDNA-expressed recombinant CYP2D6
T3 construct: purchased Research Institute for Liver Diseases Co., Ltd. (Shanghai, China)
Method: as §1, §2, §3, §4, §5, §6, §7

CYP1A2 = target: T4, CYP1A2 (Homo sapiens, UniProt P05177); assay: Colchicine metabolism by cDNA-expressed recombinant CYP1A2
T4 construct: purchased Research Institute for Liver Diseases Co., Ltd. (Shanghai, China)
T4 sequence (P05177 1-516): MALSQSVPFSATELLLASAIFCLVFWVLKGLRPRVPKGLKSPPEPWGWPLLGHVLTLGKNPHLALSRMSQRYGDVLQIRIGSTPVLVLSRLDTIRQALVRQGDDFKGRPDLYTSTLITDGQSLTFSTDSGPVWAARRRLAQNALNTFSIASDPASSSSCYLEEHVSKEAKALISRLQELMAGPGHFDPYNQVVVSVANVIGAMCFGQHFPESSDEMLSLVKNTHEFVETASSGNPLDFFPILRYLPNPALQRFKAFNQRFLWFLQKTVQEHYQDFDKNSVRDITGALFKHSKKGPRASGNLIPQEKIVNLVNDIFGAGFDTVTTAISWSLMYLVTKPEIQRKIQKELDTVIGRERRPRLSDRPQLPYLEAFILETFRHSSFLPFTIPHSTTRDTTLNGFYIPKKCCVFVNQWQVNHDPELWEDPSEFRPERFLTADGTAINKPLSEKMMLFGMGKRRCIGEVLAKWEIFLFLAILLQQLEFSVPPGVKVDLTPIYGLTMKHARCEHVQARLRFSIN
Method: as §1, §2, §3, §4, §5, §6, §7

CYP2E1 = target: T5, CYP2E1 (Homo sapiens, UniProt P05181); assay: Colchicine metabolism by cDNA-expressed recombinant CYP2E1
T5 construct: purchased Research Institute for Liver Diseases Co., Ltd. (Shanghai, China)
Method: as §1, §2, §3, §4, §5, §6, §7

T5 sequence (P05181 whole entry): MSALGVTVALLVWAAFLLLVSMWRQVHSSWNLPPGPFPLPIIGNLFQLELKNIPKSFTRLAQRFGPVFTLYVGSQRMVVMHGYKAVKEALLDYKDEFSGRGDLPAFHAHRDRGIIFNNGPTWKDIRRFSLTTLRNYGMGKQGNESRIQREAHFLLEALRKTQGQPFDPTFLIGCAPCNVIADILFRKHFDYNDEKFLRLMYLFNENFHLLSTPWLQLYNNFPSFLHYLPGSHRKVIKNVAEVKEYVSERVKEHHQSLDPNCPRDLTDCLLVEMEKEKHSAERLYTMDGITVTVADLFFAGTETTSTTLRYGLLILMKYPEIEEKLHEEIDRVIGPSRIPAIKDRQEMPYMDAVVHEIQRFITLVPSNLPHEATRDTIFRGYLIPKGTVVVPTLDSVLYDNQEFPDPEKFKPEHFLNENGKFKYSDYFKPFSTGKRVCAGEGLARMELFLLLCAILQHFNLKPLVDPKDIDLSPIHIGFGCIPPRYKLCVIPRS
T3 sequence (P10635 whole entry): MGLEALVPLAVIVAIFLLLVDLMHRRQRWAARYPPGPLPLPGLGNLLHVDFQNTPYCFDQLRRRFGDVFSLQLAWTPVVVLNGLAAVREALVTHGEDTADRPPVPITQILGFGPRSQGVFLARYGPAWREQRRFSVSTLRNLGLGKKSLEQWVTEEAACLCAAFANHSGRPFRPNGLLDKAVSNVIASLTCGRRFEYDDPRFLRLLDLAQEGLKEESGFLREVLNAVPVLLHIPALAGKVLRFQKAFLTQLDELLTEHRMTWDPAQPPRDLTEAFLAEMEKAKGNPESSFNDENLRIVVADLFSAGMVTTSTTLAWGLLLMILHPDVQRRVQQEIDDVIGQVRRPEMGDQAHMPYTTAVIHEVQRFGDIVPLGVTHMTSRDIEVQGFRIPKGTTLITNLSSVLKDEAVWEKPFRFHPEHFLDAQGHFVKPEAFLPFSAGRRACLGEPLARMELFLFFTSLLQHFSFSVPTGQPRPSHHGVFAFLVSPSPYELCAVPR

Compound	peak area of the metabolite after incubation with CYP4A11 as a percentage of the total peak areas from all the CYPs (CYP4A11)	peak area of the metabolite after incubation with CYP2B6 as a percentage of the total peak areas from all the CYPs (CYP2B6)	peak area of the metabolite after incubation with CYP2D6 as a percentage of the total peak areas from all the CYPs (CYP2D6)	peak area of the metabolite after incubation with CYP1A2 as a percentage of the total peak areas from all the CYPs (CYP1A2)	peak area of the metabolite after incubation with CYP2E1 as a percentage of the total peak areas from all the CYPs (CYP2E1)
COc1cc2c(c(OC)c1OC)-c1ccc(O)c(=O)cc1[C@@H](NC(C)=O)CC2 [M4]	6.78 ± 0.33%	7.77 ± 0.57%	11.27 ± 3.15%	6.72 ± 0.44%	6.93 ± 0.40%
COc1cc2c(c(OC)c1O)-c1ccc(OC)c(=O)cc1[C@@H](NC(C)=O)CC2 [M1]	6.48 ± 0.33%	6.90 ± 0.52%	7.91 ± 0.60%	6.36 ± 0.19%	4.77 ± 2.02%
COc1c(O)cc2c(c1O)-c1ccc(OC)c(=O)cc1[C@@H](NC(C)=O)CC2 [M8]	7.65 ± 1.95%	10.13 ± 3.38%	–	8.67 ± 3.80%	6.78 ± 0.72%
COc1cc2c(c(OC)c1OC)-c1ccc(OC)c(=O)cc1C=CC2 [M6]	6.01 ± 0.22%	9.86 ± 0.58%	7.59 ± 0.36%	8.69 ± 0.17%	8.09 ± 0.37%
COc1cc2c(c(O)c1OC)-c1ccc(OC)c(=O)cc1[C@@H](NC(C)=O)CC2 [M2]	3.57 ± 0.39%	4.42 ± 0.21%	3.23 ± 0.56%	0.00 ± 0.00%	3.69 ± 0.51%
COc1c(O)cc2c(c1OC)-c1ccc(OC)c(=O)cc1[C@@H](NC(C)=O)C=C2 [M5]	8.01 ± 0.00%	7.86 ± 0.00%	7.65 ± 11.17%	8.33 ± 0.00%	7.32 ± 0.00%
